Source: patent US20210388012A1, “METHODS AND COMPOSITIONS FOR PRODRUG FORMS OF SPECTINOMYCIN AND SPECTINAMIDE ANALOGS” (priority 2018, published 2021)

Tests used:
M. tuberculosis H37Rv = assay: Minimum inhibitory concentration (MIC), microbroth dilution; format: cell-based; settings: Mycobacterium tuberculosis, H37RV, 168 h, read-out: MIC (H37Rv)
[1] = Metabolic stability, human liver microsomal degradation; format: in vitro ADME; settings: human liver microsomes; read-out: Metabolic Stability (Human) t½ (converted)
Protocol: LC-MS Method 2. Chromatographic separation was performed on an Acquity UPLC BEH C18 1.7 μm, 2.1×50 mm column (Waters Corporation, Milford, Mass.) or a Luna Omega 1.6 μm C18, 2.1×50 mm column (Phenomenex, Torrance, Calif.) using an Acquity ultra performance liquid chromatography system. Data were acquired using Masslynx v. 4.1 and analyzed using the Openlynx software suite. This was coupled to an Acquity photodiode array detector, which acquired UV data from 210-400 nm. The flow was then split, with half directed to an evaporative light scattering detector (ELSD) and half to an SQ mass spectrometer. The total flow rate was 1 mL/min. The sample injection volume was 10 μL. The UPLC column was maintained at 60° C. and the gradient program with either basic mobile phase (A1, 10 mM ammonium bicarbonate in MilliQ H2O; B1, 0.1% formic acid in acetonitrile) or formic mobile phase (A1, 0.1% formic acid in MilliQ H2O; B1, 0.1% formic acid in acetonitrile) based on the compounds' physical and chemical properties. The mass spectrometer was operated in positive-ion mode with electrospray ionization. The conditions were as follows; capillary voltage 3.4 kV, cone voltage 30 V, source temperature 130° C., desolvation temperature 400° C., desolvation gas 800 L/hr, cone gas 100 L/hr. A full scan range from m/z=110-1000 in 0.2 s was used to acquire MS data. The ELSD-drift tube temperature was set at 52° C.
The stability of compounds to human liver microsomal degradation, i.e., metabolic stability, was determined as described previously (see North, E. J., et al, Bioorg. Med. Chem. (2013) 21(9):2587-2599) and the rate of degradation was monitored by LC-MS analysis using multiple sampled time points as described herein above in LC-MS Method 2. Metabolic stability was evaluated via the half-life from least squares fit of the concentration remaining at the time points based on first-order kinetics.

[2] = target: Mycobacterium smegmatis 70S bacterial ribosomes; assay: Ribosomal inhibition assay (luciferase-based protein synthesis inhibition); format: biochemical; settings: purified M. smegmatis 70S ribosomes, firefly luciferase mRNA
Protocol: In vitro activity was also assessed using a ribosomal inhibition assay. Briefly, luciferase-based protein synthesis inhibition assays were performed in translation reaction as described previously (Bruell, et al. Biochemistry. 2008 47 (34), 8828-8839), using purified Mycobacterium smegmatis 70S bacterial ribosomes and firefly luciferase mRNA prepared in vitro using T7 RNA polymerase. IC50 values represent the drug concentration that inhibits luciferase activity by 50%.

[3] = tested on: M. tuberculosis Erdman (TMCC107); assay: Murine model of acute TB infection; format: in vivo; settings: BALB/c mice, subcutaneous injection 400 mg/kg daily, 12 consecutive days
[4] = Single ascending maximum tolerated dose study in rat; format: in vivo; settings: female Sprague-Dawley rats, 5 second IV bolus
Protocol: Several compounds were assessed in single ascending maximum tolerated studies. The compounds assessed were 1810; 3408, a prodrug form of compound 1810; 1599, a chloro homologue of compound 1810; and gentamicin, an antimicrobial associated with ototoxicity. The study was carried out in female Sprague-Dawley rats (n=3 per group). All the drug solutions were prepared in water and PLASMA-LYTE A (50:50; […] was obtained from Baxter Healthcare Corporation, Deerfield, Ill.). Each group of rats were fasted overnight with access to water aJ libitum and a fixed volume (2 mL) of drug-containing solution was administered via the jugular vein catheter. Food was withheld for 3 h post dosing. Different phases of the study were classified on five different speeds of i.v, administration; Phase 1: 5 sec, Phase 2: 30 sec, Phase 3: 5 min, Phase 4: 15 min, Phase 5: 30 min. In the first and second phases, a set of predefined dose levels: 10, 25, 50, 75, 100, 150, 300, 350, 400, 450 and 500 mg/kg. Escalation to the next higher dose was conditional upon absence of signs of acute toxicity following the immediate lower dose over a 24 h period. All animals were monitored by visual inspection focused on focus on changes in skin, fur, eyes, and also respiratory, circulatory, autonomic and central nervous systems, along with somatomotor activity and behavior pattern, including tremors, convulsions, salivation, diarrhea, lethargy, sleep and coma. A dose level was deemed an MTD if […] of acute toxicity were observed and that dose was chosen for the second phase of the study where the process was repeated to determine a toxic dose. For third, fourth and fifth phases, dosing solution was infused by a Instech tethering system (Instech Laboratories Inc., Plymouth Meeting, Pa.) where the animal is freely moving within its cage, the catheter connection is held in place by a vascular access harness and a swivel system, and the drug administration is performed via a Harvard Apparatus programmable syringe pump. After dosing, the tether was removed immediately after completion of the infusion and the catheter was flushed with (100 μL) PlasmaLyte A. Surviving animals from the previous dose with no signs of toxicity were re-used in either phases of these studies upon allowing a one day drug washout period.

Compound: CN[C@@H]1[C@H](O)[C@H](NC)[C@H]2O[C@]3(O)[C@H](O[C@@H]2[C@H]1O)O[C@H](C)C[C@H]3NC(=O)Cc1ccc(OP(=O)(O)O)cn1 [Compound 3408, 6-(2-oxo-2-(((2R,4R,4a5,5aR,6S,7S,8R,9S,9aR,10aS)-4a,7,9-trihydroxy-2-methyl-6,8-bis(methylamino)decahydro-2H-benzo[b]pyrano[2,3-e][1,4]dioxin-4-yl)amino)ethyl)pyridin-3-yl dihydrogen phosphate]
- MIC (M. tuberculosis H37Rv): 100 µg/mL
- half-life [1]: < 5 min
- IC50 (M. smegmatis) [2]: 6.70 µg/mL
- Efficacy in mouse model of acute tuberculosis infection (lung CFU, FIG. 1) [3]: similarly active
- MTD [4]: >500 mg/kg
- MTD at 24 h ([4]; female, Sprague-Dawley, rat, in vivo, iv, read-out: MTD): > 500 mg/kg
